Results from patent US12053441B2, “Formulations for improving the delivery of hydrophobic agents” (THE ROYAL INSTITUTION FOR THE ADVANCEMENT OF LEARNING / …, priority 2018, dated 2024).
Values after ≈ are worked out from the molar mass of the structure shown. Where a name gives a salt, the structure may show the parent alone.

Tested on: UQ-deficient cells (Mclk1 KO or DKO cells)
Assay: Screening for compounds that increase survival or respiration of UQ-deficient cells
Assay type: cell-based, mouse
Conditions: not given
Source text: Four different screening methods were developed. The screening methods 1 to 3 are based on rescue-of-lethality in glucose-free galactose-containing media. The presence of galactose instead of glucose forces the cells to rely on oxidative phosphorylation for energy production. Screening method 4 is based on rescue of respiration, implying that processes immediately dependent on UQ have been rescued. Libraries of small molecules were screened for compounds and/or agents that increase survival of UQ-deficient cells (e.g., Mclk1 KO or DKO cells) in standard or modified galactose media depending on the screen settings.
The screen uses cells lacking UQ (e.g., Mclk1 KO cells) and consists of three key steps: • 1) Day 0: preparation of Mclk1 KO cells in 96-well plates in standard (glucose-containing) culture medium. • 2) Day 1: changing to glucose-free galactose-containing medium and adding compounds to be screened at a concentration of approximately 10 μM. • 3) Day 4 to 6: following 3 to 5 days of incubation with the compound to be screened, media were removed and cell viability was assayed by resazurin reduction assay.
The screen also uses cells lacking UQ biosynthesis (e.g., DKO cells) and its protocol is essentially the same as the galactose-only screen except that in step 2, a minimal amount of UQ10 is added into the galactose screening media at a concentration at which the added UQ10 is insufficient by itself to support survival.
The screen uses Mclk1 SKO cells and its protocol is essentially the same as the galactose-only screen except that in step 2, the screening medium is added with 2,4-DHB at a concentration that allows the KO cells to restore some UQ biosynthetic ability but not sufficiently to allow for a level of UQ production that is sufficient for respiration-dependent growth. Thus, under these conditions a compound that can boost the overall level of UQ biosynthesis might allow the cells to make enough UQ to survive in a respiration-dependent medium. Such a screen can identify compounds that boost UQ biosynthesis at any level, including at the level of gene expression.
This screening approach aims to directly identify compounds that can boost mitochondrial respiratory chain activity in respiration-deficient cells. […] For this, cells were seeded into XF24 V7 culture plates and treated with testing compounds for 1 to 2 days before a treatment effect on cellular respiration is measured using the Seahorse XF-24e Flux Analyzer. The XF assay was the same as above described except galactose (10 mM) rather glucose was used as the sugar source to increase respiration rate and thus assay sensitivity.

Compound | identified by the screening methods as useful for UQ deficiency
CC1(C)CCC(CN2CCN(c3ccc(C(=O)NS(=O)(=O)c4ccc(NCC5CCOCC5)c([N+](=O)[O-])c4)c(Oc4cnc5[nH]ccc5c4)c3)CC2)=C(c2ccc(Cl)cc2)C1 [ABT-199] | identified
C[C@@H]1COCCN1c1cc(C2(S(C)(=O)=O)CC2)nc(-c2cccc3[nH]ccc23)n1 [AZ20] | identified
CNC(=O)c1cccc(-c2ccc3c(N4CCOC[C@@H]4C)nc(N4CCOC[C@@H]4C)nc3n2)c1 [AZD2014] | identified
Nc1cc(C(F)(F)F)c(-c2cc(N3CCOCC3)nc(N3CCOCC3)n2)cn1 [BKM120, buparlisib] | identified
CS(=O)(=O)N1CCc2c(-c3cnc(N)nc3)nc(N3CCOCC3)nc21 [CH5132799] | identified
CC(C)C[C@H](NC(=O)CNC(=O)c1cc(Cl)ccc1Cl)B(O)O [MLN2238] | identified
CC(C)n1nc(-c2cc3cc(O)ccc3[nH]2)c2c(N)ncnc21 [PP242] | identified
CCc1c2c(nc3ccc(O)cc13)-c1cc3c(c(=O)n1C2)COC(=O)[C@]3(O)CC [SN-38] | identified
Nc1nc(N)c2nc(-c3cccc(O)c3)cnc2n1 [TG100713] | identified
CNC(=O)Nc1ccc(-c2nc(N3CC4CCC(C3)O4)c3cnn(C4CCC5(CC4)OCCO5)c3n2)cc1 [WYE-125132] | identified
CNC1CCCN(c2c(F)cc3c(=O)c(C(=O)O)cn(C4CC4)c3c2OC)C1 (stereo not drawn) [balofloxacin] | identified
CCC(=O)OCC(=O)[C@@]1(OC(=O)CC)[C@@H](C)C[C@H]2[C@@H]3CCC4=CC(=O)C=C[C@]4(C)[C@@]3(F)[C@@H](O)C[C@@]21C [betamethasone dipropionate] | identified
CCCCC(=O)O[C@]1(C(=O)CO)[C@@H](C)C[C@H]2[C@@H]3CCC4=CC(=O)C=C[C@]4(C)[C@@]3(F)[C@@H](O)C[C@@]21C [betamethasone valerate] | identified
CC(=O)OCC(=O)[C@@]12N=C(C)O[C@@H]1C[C@H]1[C@@H]3CCC4=CC(=O)C=C[C@]4(C)[C@H]3[C@@H](O)C[C@@]12C [deflazacort] | identified
CC1(C)O[C@@H]2C[C@H]3[C@@H]4CCC5=CC(=O)C=C[C@]5(C)[C@H]4[C@@H](O)C[C@]3(C)[C@]2(C(=O)CO)O1 [desonide] | identified
CC(=O)OCC(=O)[C@@]1(O)CC[C@H]2[C@@H]3CCC4=CC(=O)C=C[C@]4(C)[C@@]3(Cl)[C@@H](Cl)C[C@@]21C [dichlorisone acetate] | identified

Compound | identified by the screening methods as useful for UQ deficiency
C[C@H]1c2cccc(O)c2C(=O)C2=C(O)[C@]3(O)C(=O)C(C(N)=O)=C(O)[C@@H](N(C)C)[C@@H]3[C@@H](O)[C@@H]21 [doxycycline HCl] | identified
COc1cc2c(cc1Cc1cccc(Cl)c1F)c(=O)c(C(=O)O)cn2[C@H](CO)C(C)C [elvitegravir] | identified
CC1(C)O[C@@H]2C[C@H]3[C@@H]4C[C@H](F)C5=CC(=O)C=C[C@]5(C)[C@@]4(F)[C@@H](O)C[C@]3(C)[C@]2(C(=O)CO)O1 [fluocinolone acetonide] | identified
CC(=O)O[C@]1(C(C)=O)CC[C@H]2[C@@H]3C[C@H](C)C4=CC(=O)C=C[C@]4(C)[C@@]3(F)[C@@H](O)C[C@@]21C [fluorometholone acetate] | identified
CCC(=O)O[C@]1(C(=O)SCF)[C@H](C)C[C@H]2[C@@H]3C[C@H](F)C4=CC(=O)C=C[C@]4(C)[C@@]3(F)[C@@H](O)C[C@@]21C [fluticasone propionate] | identified
CC1(C)O[C@@H]2C[C@H]3[C@@H]4CCC5=CC(=O)CC[C@]5(C)[C@@]4(F)[C@@H](O)C[C@]3(C)[C@]2(C(=O)CCl)O1 [halcinonide] | identified
C[C@]12CCC(=O)C=C1CC[C@@H]1[C@@H]2[C@@H](O)C[C@@]2(C)[C@H]1CC[C@]2(O)C(=O)CO [hydrocortisone] | identified
CCOC(=O)O[C@]1(C(=O)OCCl)CC[C@H]2[C@@H]3CCC4=CC(=O)C=C[C@]4(C)[C@H]3[C@@H](O)C[C@@]21C [ioteprednol etabonate] | identified
CCc1c2c(nc3ccc(OC(=O)N4CCC(N5CCCCC5)CC4)cc13)-c1cc3c(c(=O)n1C2)COC(=O)[C@]3(O)CC [irinotecan] | identified
C[C@@H]1C[C@H]2[C@@H]3CCC4=CC(=O)C=C[C@]4(C)[C@@]3(Cl)[C@@H](O)C[C@]2(C)[C@@]1(OC(=O)c1ccco1)C(=O)CCl [mometasone furoate] | identified
CC(=O)OCC(=O)[C@@]1(O)CC[C@H]2[C@@H]3CCC4=CC(=O)C=C[C@]4(C)[C@H]3[C@@H](O)C[C@@]21C [prednisolone acetate] | identified
C[C@]12C=CC(=O)C=C1CC[C@@H]1[C@@H]2[C@@H](O)C[C@@]2(C)[C@H]1CC[C@]2(O)C(=O)CO [prednisolone] | identified
CC1=C(CC(=O)O)c2cc(F)ccc2/C1=C\c1ccc([S+](C)[O-])cc1 (stereo not drawn) [sulindac] | identified
C[C@]12C=CC(=O)C=C1CC[C@H]1[C@@H]3C[C@@H](O)[C@](O)(C(=O)CO)[C@@]3(C)C[C@H](O)[C@@]12F [triamcinolone] | identified
Caspofungin acetate | identified

Same assay, conditions: DKO cells, minimal UQ10 added

Compound | hit in the UQ supplementation screen (method 2)
Caspofungin acetate | one of the hits

Tested on: not given
Assay: not given
Conditions: cited from earlier work

Compound | solubility in water
C=CCNC1=C2C[C@@H](C)C[C@H](OC)[C@H](O)[C@@H](C)/C=C(\C)[C@H](OC(N)=O)[C@@H](OC)/C=C\C=C(/C)C(=O)NC(=CC1=O)C2=O [17-AAG] | 0.1 mg/mL (≈ 171 µM)
O=C(O)COC(=O)Cc1ccccc1Nc1c(Cl)cccc1Cl [aceclofenac] | insoluble
Nc1nc2c(ncn2COCCO)c(=O)[nH]1 [acyclovir] | < 2.5 mg/mL
CCCSc1ccc2nc(NC(=O)OC)[nH]c2c1 [albendazole] | insoluble
CCCC1O[C@@H]2C[C@H]3[C@@H]4CCC5=CC(=O)C=C[C@]5(C)[C@H]4[C@@H](O)C[C@]3(C)[C@]2(C(=O)CO)O1 (stereo partly drawn) [budesonide] | 10.7 mg/1
CC(=O)O[C@@]12CO[C@@H]1C[C@H](O)[C@@]1(C)C(=O)[C@H](O)C3=C(C)[C@@H](OC(=O)[C@H](O)[C@@H](NC(=O)OC(C)(C)C)c4ccccc4)C[C@@](O)([C@@H](OC(=O)c4ccccc4)[C@H]21)C3(C)C [docetaxel] | 0.00493 mg/mL (≈ 6.1 µM)
COc1cc([C@@H]2c3cc4c(cc3[C@@H](O[C@@H]3O[C@@H]5CO[C@@H](C)O[C@H]5[C@H](O)[C@H]3O)[C@H]3COC(=O)[C@H]23)OCO4)cc(OC)c1O [etoposide] | 0.2 mg/mL (≈ 340 µM)
CC(C)(C)NC(=O)[C@H]1CC[C@H]2[C@@H]3CC[C@H]4NC(=O)C=C[C@]4(C)[C@H]3CC[C@]12C [finasteride] | 0.0117 mg/mL (≈ 31.4 µM)
O=C(O)c1ccccc1Nc1cccc(C(F)(F)F)c1 [flufenamic acid] | 0.00909 mg/mL (≈ 32.3 µM)
O=c1cc(-c2ccc(O)c(O)c2)oc2cc(O)cc(O)c12 [luteolin] | 0.00572 mg/mL (≈ 20 µM)
COc1ccc2[nH]c([S+]([O-])Cc3ncc(C)c(OC)c3C)nc2c1 (stereo not drawn) [omeprazole] | 0.359 mg/mL (≈ 1040 µM)
CO[C@H]1C[C@@H]2CC[C@@H](C)[C@@](O)(O2)C(=O)C(=O)N2CCCC[C@H]2C(=O)O[C@H]([C@H](C)C[C@@H]2CC[C@@H](OC(=O)C(C)(CO)CO)[C@H](OC)C2)CC(=O)[C@H](C)/C=C(\C)[C@@H](O)[C@@H](OC)C(=O)[C@H](C)C[C@H](C)/C=C/C=C/C=C/1C [temsirolimus] | 0.02 mg/mL (≈ 19.4 µM)
COc1cc([C@@H]2c3cc4c(cc3[C@@H](O[C@@H]3O[C@@H]5CO[C@@H](c6cccs6)O[C@H]5[C@H](O)[C@H]3O)[C@H]3COC(=O)[C@H]23)OCO4)cc(OC)c1O [teniposide] | 0.0598 mg/mL (≈ 91.1 µM)
